Experimental data published in US20050260219A1, “Carboxypeptidases B from anopheles gambiae. compositions comprising them, vaccine applications and use as therapeutical targets” (INSTITUT PASTEUR, priority 2004, published 2005).
Residues, ends and D or L forms follow the SMILES beside them. *: point of attachment. Bz = O=C(c1ccccc1)*

Legend:
recombinant CPBAg1 [1] = biological target: T1, recombinant CPBAg1 (Anopheles gambiae, UniProt Q702G3); assay: Effect of inhibitors on CPBAg1 activity (Hip-Arg as substrate); format: biochemical; conditions: for Activity (%): relative to control without inhibitor
T1 sequence (Q702G3 20-423): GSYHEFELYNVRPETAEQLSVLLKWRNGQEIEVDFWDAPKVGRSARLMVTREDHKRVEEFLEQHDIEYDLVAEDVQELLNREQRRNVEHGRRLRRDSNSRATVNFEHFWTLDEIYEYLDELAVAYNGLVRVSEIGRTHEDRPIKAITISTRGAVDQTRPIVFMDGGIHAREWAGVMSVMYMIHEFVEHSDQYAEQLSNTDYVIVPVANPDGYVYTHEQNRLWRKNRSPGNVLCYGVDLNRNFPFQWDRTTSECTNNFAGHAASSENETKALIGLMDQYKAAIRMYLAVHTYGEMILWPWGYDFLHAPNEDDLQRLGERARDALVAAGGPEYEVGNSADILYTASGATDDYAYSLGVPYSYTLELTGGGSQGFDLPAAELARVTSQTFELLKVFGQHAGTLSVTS
Procedure: (§1) Carboxypeptidase activity was determined using the synthetic di-peptide substrates Hippuryl-Arginine (Hip-Arg), Hippuryl-Lysine (Hip-Lys) as carboxypeptidase B substrates and Hippuryl-Phenylalanine (Hip-Phe) as carboxypeptidase A substrate. All reagents were purchased from Sigma. Activities were assayed in 20 μl E buffer (100 mM NaCl/50 mM Hepes/100 μM ZnCl2 pH 7.2) containing 1 mM Hip-Arg, Hip-Lys or Hip-Phe. The reaction was initiated by adding an equal volume of His-tagged CPBAg1 (5 ng/μl in E buffer), incubated at 25° C. for 10-40 min, and stopped by the addition of 20 μl Ninhydrin reagent (Sigma, Lyon, France). The rate of the reaction was measured by estimating the amount of released amino acids using the ninhydrin procedure (60). One unit of enzyme activity was defined as μmol of amino acids released/min.
Inhibitory effects of the chelating agent 1,10-phenantroline (Sigma, Lyon, France), and of the arginine analogue GEMSA (Guanidinoethylmercaptosuccinic acid, Fluka) on CPBAg1 activity were assayed as follows: different concentrations ([…]-1 mM) of inhibitors were preincubated at 25° C. for 30 min with the recombinant protein in E buffer before addition of Hip-Arg. Activity was measured as described above and was expressed as the percentage of activity relative to controls performed in absence of inhibitor.
Accordingly, CPBAg1 activity was inhibited by the active site-directed inhibitor GEMSA, which is an arginine analogue (Table 2). Activity of the purified recombinant CPBAg1 produced in the baculovirus was assayed after incubation with the zinc-carboxypeptidase inhibitor 1,10-phenantroline and the active site-directed inhibitor GEMSA, using Hyp-Arg as substrate. 100% activity corresponds to 1.1 and 0.8 unit/mg for 1,10-phenanatroline and GEMSA experiments, respectively.

[2] = tested on: P. falciparum development in An. gambiae; assay: Effect of CPB substrates, free L-arginine and free L-lysine added to infected blood meal on P. falciparum development in An. gambiae; format: in vivo, Plasmodium falciparum; conditions: day 7 post feeding; for % Infected mosquitoes (number of dissected mosquitoes): pooled infections; for Mean number of oocysts (range): per positive midgut
Procedure: Asymptomatic village people (Senegal) or schoolchildren aged ≦10 years old (Cameroon) were mass-screened to detect parasite carriers as previously described (12). All participants were volunteers and the consent of the children's parents was obtained. The experimental protocols were approved by the Cameroonian and the Senegalese National Ethics Committees. Infections and control experiments were performed with the blood from gametocyte carrier volunteers and with the blood from parasite-free donors. Venous blood (10 ml) was collected in a heparin coated and pre-warmed tube, centrifuged for 5 minutes, 5,000 rpm, at 37° C. and the serum of the patient immediatly replaced with a prewarmed AB serum collected from donors not living in a malaria endemic country. For each experiment, batches of 60 nulliparous female mosquitoes (5 days old) starved from sugar for 24 h were fed for 10 minutes, using the artificial membrane feeding technique (24). Fully engorged females were maintained at the insectarium until dissection. For each experiment a control batch of mosquitoes was used to determine the rate and intensity of infection by oocyst detection on day 7 post feeding. These experiments were performed with a control providing an infection rate close to or above 50%. As described below these basic procedures for infecting An. gambiae with P. falciparum were modified to answer specific issues.
Mosquito infections were performed with the blood from volunteers harboring a low gametocytaemia, as described above, except that 10 μl of L-arginine (Sigma), L-lysine (Sigma), Hippuryl-Lysine (Sigma) or Hippuryl-Arginine (Sigma) at 10, 1, 0.1 and 0.01 mM in TrisHCl 50 mM pH 7.2 were added to 500 μl of P. falciparum infected blood just before mosquito feeding. As a control 10 μl of TrisHCl 50 mM pH 7.2 was added to the P. falciparum infected blood. Triplicate experiments using the blood of three different gametocyte carriers were performed except for L-lysine where only two experiments could be performed. Rate and intensity of infection were scored on day 7 after blood feeding by detection of oocysts on the mosquito midgut wall.
For the data presented in Table 4 (below), An. gambiae were fed on P. falciparum infected blood supplemented with CPB substrates: Hippuryl-Arginine or Hippuryl-Lysine. Proportion of infected mosquitoes and oocyst counts per positive midgut were determined on day 7 post feeding. For each substrate and concentration tested, data from three independent infections were pooled. […] The infected blood harboured few gametocytes resulting in a low infection rate in the control and thereby allowing the detection of the effect of carboxypeptidase substrates.
For the data presented in Table 5 (below), An. gambiae were fed on P. falciparum infected blood supplemented with L-arginine or L-lysine at three different concentrations. Proportion of infected mosquitoes and oocyst counts per positive midgut were determined on day 7 post feeding. Data were pooled from three independent infections for L-arginine experiments, and from two independent infections for L-lysine experiments.

recombinant CPBAg1 [3] = biological target: T1, recombinant CPBAg1; assay: Carboxypeptidase activity assay on recombinant CPBAg1 with di-peptide substrates; format: biochemical; conditions: for Enzyme activity: purified recombinant CPBAg1 from baculovirus, 1 mM substrate, 1 unit cleaves 1 μmol product/min
Procedure: as §1
Estimation of Km and kcat was carried out after assays over a 500-fold range of Hip-Arg concentration (0.02-10 mM). Each concentration was assayed in triplicate. The kinetic parameters were derived from iterative non-linear least square fits of the Michaelis-Menten equation using the experimental data (61). Confidence limits for the fitted values were determined by 100 Monte Carlo iterations using the experimental standard deviations on individual measurements.
Activity of the purified recombinant CPBAg1 produced in baculovirus was assayed against the carboxypeptidase B di-peptide substrates Hippuryl-Arginine (Hip-Arg) and Hippuryl-Lysine (Hip-Lys) and the carboxypeptidase A di-peptide substrate Hippuryl-Phenylalanine (Hip-Phe). 1 unit cleaves 1 μmol product/min.

Structure (SMILES) | % Infected mosquitoes (number of dissected mosquitoes) ([2]; 100 μM) | Mean number of oocysts (range) ([2]; 100 μM) | % Infected mosquitoes (number of dissected mosquitoes) ([2]; 1 mM) | Mean number of oocysts (range) ([2]; 1 mM) | Enzyme activity (recombinant CPBAg1 [3]) | other results
N=C(N)NCCSC(CC(=O)O)C(=O)O (stereo not drawn) [GEMSA, Guanidinoethylmercaptosuccinic acid] | – | – | – | – | – | activity at 0.1 µM (recombinant CPBAg1 [1]): 96 ± 2%; activity at 10 µM (recombinant CPBAg1 [1]): 41%; activity at 100 µM (recombinant CPBAg1 [1]): 20 ± 2%; activity at 1000 µM (recombinant CPBAg1 [1]): 7 ± 11%
NCCCC[C@H](NC(=O)CNC(=O)c1ccccc1)C(=O)O [Hippuryl-Lysine] (Bz-Gly-Lys-OH) | 41.1 (90) % | 2.4 (1-6) | 46.7 (92) % | 2.5 (1-12) | 0.24 ± 0.02 unit/mg | % Infected mosquitoes (number of dissected mosquitoes) ([2]; 10 mM): 23.8 (80) %; Mean number of oocysts (range) ([2]; 10 mM): 2.1 (1-6)
c1cnc2c(c1)ccc1cccnc12 [1,10-phenantroline] | – | – | – | – | – | Activity (%) (recombinant CPBAg1 [1]; inhibitor 0.1 μM): 96 ± 2%; Activity (%) (recombinant CPBAg1 [1]; inhibitor 10 μM): 87 ± 8%; Activity (%) (recombinant CPBAg1 [1]; inhibitor 100 μM): 35 ± 5%; Activity (%) (recombinant CPBAg1 [1]; inhibitor 1000 μM): 24 ± 5%
N=C(N)NCCC[C@H](NC(=O)CNC(=O)c1ccccc1)C(=O)O [Hippuryl-Arginine] (Bz-Gly-Arg-OH) | 40.9 (88) % | 2.1 (1-7) | 28 (50) % | 2.1 (1-8) | 0.83 ± 0.01 unit/mg | % Infected mosquitoes (number of dissected mosquitoes) ([2]; 10 μM): 26.3 (80) %; Mean number of oocysts (range) ([2]; 10 μM): 2.3 (1-10); activity against Hip-Arg relative to Hip-Lys (recombinant CPBAg1 [3]; ratio of enzyme activities of Table 1): approximately 3.5 times
NCCCC[C@H](N)C(=O)O [L-lysine] | 42.1 (38) % | 4.9 (1-15) | 30.5 (36) % | 8.3 (1-44) | – | % Infected mosquitoes (number of dissected mosquitoes) ([2]; 10 μM): 62.9 (35) %; Mean number of oocysts (range) ([2]; 10 μM): 8.2 (1-18)
O=C(CNC(=O)c1ccccc1)N[C@@H](Cc1ccccc1)C(=O)O [Hip-Phe, Hippuryl-Phenylalanine] (Bz-Gly-Phe-OH) | – | – | – | – | 0 unit/mg | –
N=C(N)NCCC[C@H](N)C(=O)O [L-arginine] | 38.4 (86) % | 3.2 (1-13) | 34.4 (64) % | 5.3 (1-26) | – | % Infected mosquitoes (number of dissected mosquitoes) ([2]; 10 mM): 55.2 (58) %; Mean number of oocysts (range) ([2]; 10 mM): 5.2 (1-31)
